Experimental data from the CheMixHub viscosity set.
± gives the uncertainty stated by the source.

Assay: xn = mol fraction of the nth substance listed

ClC(Cl)=C(Cl)Cl + COCCO
viscosity [mPa·s], 101.33 kPa
Settings	x1 = 0.1062	x1 = 0.2046	x1 = 0.3091	x1 = 0.4453	x1 = 0.5214	x1 = 0.6184	x1 = 0.7146	x1 = 0.8062	x1 = 0.9015
303.15 K	1.365 ± 0.036	1.273 ± 0.033	1.178 ± 0.031	1.066 ± 0.028	1.009 ± 0.027	0.943 ± 0.025	0.89 ± 0.024	0.846 ± 0.023	0.808 ± 0.022
313.15 K	1.111 ± 0.03	1.049 ± 0.028	0.985 ± 0.027	0.907 ± 0.025	0.866 ± 0.024	0.819 ± 0.022	0.778 ± 0.021	0.747 ± 0.021	0.727 ± 0.02

CCCCCCCCCCCCCC + COc1ccccc1
viscosity [mPa·s], 101 kPa
Settings	x1 = 0.1012	x1 = 0.2027	x1 = 0.3005	x1 = 0.3936	x1 = 0.4986	x1 = 0.6001	x1 = 0.6977	x1 = 0.7959	x1 = 0.8991
298.15 K	0.996 ± 0.095	1.035 ± 0.099	1.105 ± 0.1	1.241 ± 0.12	1.311 ± 0.12	1.38 ± 0.13	1.45 ± 0.13	1.521 ± 0.14	1.697 ± 0.15
303.15 K	0.916 ± 0.089	0.974 ± 0.093	1.004 ± 0.096	1.116 ± 0.11	1.21 ± 0.11	1.304 ± 0.12	1.398 ± 0.13	1.493 ± 0.14	1.587 ± 0.14
308.15 K	0.855 ± 0.084	0.907 ± 0.088	0.932 ± 0.09	1.028 ± 0.098	1.089 ± 0.1	1.149 ± 0.11	1.209 ± 0.11	1.27 ± 0.12	1.331 ± 0.12

ClC(Cl)=C(Cl)Cl + COc1ccccc1
303.15 K, 101.3 kPa
Settings	viscosity [mPa·s]
x2 = 0.0193	0.793 ± 0.013
x2 = 0.039	0.79 ± 0.013
x2 = 0.0561	0.792 ± 0.013
x2 = 0.1158	0.781 ± 0.013
x2 = 0.189	0.776 ± 0.013
x2 = 0.2303	0.778 ± 0.013
x2 = 0.2742	0.783 ± 0.013
x2 = 0.3317	0.787 ± 0.013
x2 = 0.3643	0.79 ± 0.013
x2 = 0.4286	0.801 ± 0.013
x2 = 0.4726	0.812 ± 0.013
x2 = 0.6096	0.831 ± 0.013
x2 = 0.6829	0.848 ± 0.014
x2 = 0.7292	0.856 ± 0.014
x2 = 0.7745	0.862 ± 0.014
x2 = 0.8665	0.878 ± 0.014
x2 = 0.8991	0.885 ± 0.014
x2 = 0.9485	0.899 ± 0.014

O=[N+]([O-])c1ccccc1 + COc1ccccc1
Settings	viscosity [mPa·s]
293.15 K, 101.33 kPa, x2 = 0.0982	1.864 ± 0.098
293.15 K, 101.33 kPa, x2 = 0.1946	1.72 ± 0.09
293.15 K, 101.33 kPa, x2 = 0.2868	1.597 ± 0.084
293.15 K, 101.33 kPa, x2 = 0.3929	1.478 ± 0.077
293.15 K, 101.33 kPa, x2 = 0.5767	1.407 ± 0.074
293.15 K, 101.33 kPa, x2 = 0.6086	1.289 ± 0.068
293.15 K, 101.33 kPa, x2 = 0.7073	1.23 ± 0.064
293.15 K, 101.33 kPa, x2 = 0.8086	1.167 ± 0.061
293.15 K, 101.33 kPa, x2 = 0.9081	1.117 ± 0.059
298.15 K, 101 kPa, x2 = 0.1	1.556 ± 0.041
298.15 K, 101 kPa, x2 = 0.2022	1.561 ± 0.04
298.15 K, 101 kPa, x2 = 0.3039	1.454 ± 0.038
298.15 K, 101 kPa, x2 = 0.3968	1.368 ± 0.035
298.15 K, 101 kPa, x2 = 0.5018	1.281 ± 0.033
298.15 K, 101 kPa, x2 = 0.6021	1.204 ± 0.031
298.15 K, 101 kPa, x2 = 0.7032	1.146 ± 0.03
298.15 K, 101 kPa, x2 = 0.8267	1.068 ± 0.028
298.15 K, 101 kPa, x2 = 0.9043	1.045 ± 0.027
298.15 K, 101.33 kPa, x2 = 0.0982	1.703 ± 0.089
298.15 K, 101.33 kPa, x2 = 0.1946	1.613 ± 0.084
298.15 K, 101.33 kPa, x2 = 0.2868	1.468 ± 0.077
298.15 K, 101.33 kPa, x2 = 0.3929	1.371 ± 0.072
298.15 K, 101.33 kPa, x2 = 0.5767	1.294 ± 0.068
298.15 K, 101.33 kPa, x2 = 0.6086	1.201 ± 0.063
298.15 K, 101.33 kPa, x2 = 0.7073	1.153 ± 0.06
298.15 K, 101.33 kPa, x2 = 0.8086	1.074 ± 0.056
298.15 K, 101.33 kPa, x2 = 0.9081	1.048 ± 0.055
303.15 K, 101 kPa, x2 = 0.0972	1.555 ± 0.014
303.15 K, 101 kPa, x2 = 0.1	1.43 ± 0.037
303.15 K, 101 kPa, x2 = 0.1829	1.437 ± 0.013
303.15 K, 101 kPa, x2 = 0.2022	1.443 ± 0.037
303.15 K, 101 kPa, x2 = 0.2642	1.341 ± 0.012
303.15 K, 101 kPa, x2 = 0.3039	1.339 ± 0.035
303.15 K, 101 kPa, x2 = 0.3916	1.224 ± 0.011
303.15 K, 101 kPa, x2 = 0.3968	1.263 ± 0.033
303.15 K, 101 kPa, x2 = 0.4829	1.147 ± 0.011
303.15 K, 101 kPa, x2 = 0.5018	1.186 ± 0.031
303.15 K, 101 kPa, x2 = 0.583	1.08 ± 0.01
303.15 K, 101 kPa, x2 = 0.6021	1.115 ± 0.029
303.15 K, 101 kPa, x2 = 0.6854	1.022 ± 0.0096
303.15 K, 101 kPa, x2 = 0.7032	1.064 ± 0.028
303.15 K, 101 kPa, x2 = 0.7963	0.981 ± 0.0093
303.15 K, 101 kPa, x2 = 0.8267	0.9924 ± 0.026
303.15 K, 101 kPa, x2 = 0.8977	0.96 ± 0.0091
303.15 K, 101 kPa, x2 = 0.9043	0.9678 ± 0.025
308.15 K, 101 kPa, x2 = 0.1	1.317 ± 0.034
308.15 K, 101 kPa, x2 = 0.2022	1.326 ± 0.034
308.15 K, 101 kPa, x2 = 0.3039	1.236 ± 0.032
308.15 K, 101 kPa, x2 = 0.3968	1.165 ± 0.03
308.15 K, 101 kPa, x2 = 0.5018	1.096 ± 0.028
308.15 K, 101 kPa, x2 = 0.6021	1.031 ± 0.027
308.15 K, 101 kPa, x2 = 0.7032	0.9838 ± 0.025
308.15 K, 101 kPa, x2 = 0.8267	0.92 ± 0.024
308.15 K, 101 kPa, x2 = 0.9043	0.8978 ± 0.023
313.15 K, 101 kPa, x2 = 0.1	1.217 ± 0.031
313.15 K, 101 kPa, x2 = 0.2022	1.224 ± 0.032
313.15 K, 101 kPa, x2 = 0.3039	1.142 ± 0.03
313.15 K, 101 kPa, x2 = 0.3968	1.078 ± 0.028
313.15 K, 101 kPa, x2 = 0.5018	1.013 ± 0.026
313.15 K, 101 kPa, x2 = 0.6021	0.9572 ± 0.025
313.15 K, 101 kPa, x2 = 0.7032	0.9119 ± 0.024
313.15 K, 101 kPa, x2 = 0.8267	0.8533 ± 0.022
313.15 K, 101 kPa, x2 = 0.9043	0.8343 ± 0.022

COCC(C)O (stereo not drawn) + CS(C)=O
viscosity [mPa·s], 101 kPa
Settings	298.15 K	303.15 K	308.15 K	313.15 K	318.15 K
x1 = 0.0436	1.79 ± 0.17	1.54 ± 0.15	1.47 ± 0.14	1.39 ± 0.13	1.31 ± 0.13
x1 = 0.0879	1.79 ± 0.17	1.54 ± 0.15	1.47 ± 0.14	1.38 ± 0.13	1.3 ± 0.12
x1 = 0.1327	1.78 ± 0.17	1.53 ± 0.14	1.46 ± 0.14	1.38 ± 0.13	1.3 ± 0.12
x1 = 0.1781	1.78 ± 0.17	1.53 ± 0.14	1.46 ± 0.14	1.37 ± 0.13	1.29 ± 0.12
x1 = 0.2242	1.78 ± 0.17	1.53 ± 0.14	1.46 ± 0.14	1.37 ± 0.13	1.29 ± 0.12
x1 = 0.2709	1.77 ± 0.16	1.53 ± 0.14	1.45 ± 0.14	1.36 ± 0.13	1.29 ± 0.12
x1 = 0.3183	1.77 ± 0.16	1.52 ± 0.14	1.45 ± 0.14	1.36 ± 0.13	1.28 ± 0.12
x1 = 0.3663	1.77 ± 0.16	1.52 ± 0.14	1.45 ± 0.14	1.35 ± 0.13	1.28 ± 0.12
x1 = 0.415	1.76 ± 0.16	1.52 ± 0.14	1.44 ± 0.14	1.35 ± 0.13	1.28 ± 0.12
x1 = 0.4644	1.75 ± 0.16	1.51 ± 0.14	1.43 ± 0.14	1.34 ± 0.13	1.27 ± 0.12
x1 = 0.5145	1.75 ± 0.16	1.51 ± 0.14	1.43 ± 0.14	1.34 ± 0.13	1.26 ± 0.12
x1 = 0.5653	1.75 ± 0.16	1.5 ± 0.14	1.42 ± 0.14	1.33 ± 0.13	1.25 ± 0.12
x1 = 0.6169	1.73 ± 0.16	1.49 ± 0.14	1.41 ± 0.13	1.31 ± 0.13	1.24 ± 0.12
x1 = 0.6692	1.72 ± 0.16	1.47 ± 0.14	1.39 ± 0.13	1.29 ± 0.12	1.22 ± 0.12
x1 = 0.7224	1.7 ± 0.16	1.45 ± 0.14	1.37 ± 0.13	1.27 ± 0.12	1.2 ± 0.12
x1 = 0.7762	1.67 ± 0.16	1.42 ± 0.14	1.34 ± 0.13	1.24 ± 0.12	1.17 ± 0.11
x1 = 0.8864	1.62 ± 0.15	1.36 ± 0.13	1.28 ± 0.12	1.18 ± 0.11	1.11 ± 0.11

O=[N+]([O-])c1ccccc1 + CS(C)=O
viscosity [mPa·s], 101 kPa
Settings	x2 = 0.1	x2 = 0.2	x2 = 0.3	x2 = 0.4	x2 = 0.5	x2 = 0.6	x2 = 0.7	x2 = 0.8	x2 = 0.9
298.15 K	1.851 ± 0.018	1.877 ± 0.018	1.903 ± 0.018	1.927 ± 0.018	1.946 ± 0.018	1.962 ± 0.019	1.975 ± 0.019	1.985 ± 0.019	1.993 ± 0.019
308.15 K	1.569 ± 0.015	1.586 ± 0.015	1.605 ± 0.016	1.623 ± 0.016	1.639 ± 0.016	1.653 ± 0.016	1.662 ± 0.016	1.665 ± 0.016	1.664 ± 0.016
318.15 K	1.333 ± 0.013	1.349 ± 0.013	1.353 ± 0.013	1.377 ± 0.014	1.388 ± 0.014	1.396 ± 0.014	1.402 ± 0.014	1.403 ± 0.014	1.4 ± 0.014
